US20200236940A1, “2-(HET)ARYL-SUBSTITUTED FUSED HETEROCYCLE DERIVATIVES AS PESTICIDES” (Bayer Aktiengesellschaft, priority 2017, published 2020)

Tests used:
Format in all cases: in vivo
[1] = system: Ctenocephalides felis; experiment: Ctenocephalides felis oral test; conditions: application rate 100 ppm, after 2 days
Procedure: Ctenocephalides felis—Oral Test Solvent: dimethyl sulfoxide To produce a suitable active ingredient formulation, 10 mg of active ingredient are mixed with 0.5 ml of dimethyl sulfoxide. Dilution with citrated cattle blood gives the desired concentration. About 20 unfed adult cat fleas (Ctenocephalides felis) are placed into a chamber which is closed at the top and bottom with gauze. A metal cylinder whose bottom end is closed with parafilm is placed onto the chamber. The cylinder contains the blood/active ingredient formulation, which can be imbibed by the fleas through the parafilm membrane. After 2 days, the kill in % is determined. 100% means that all of the fleas have been killed; 0% means that none of the fleas have been killed.

[2] = system: Musca domestica; experiment: Musca domestica test; conditions: application rate 100 ppm, after 2 days, adult houseflies
Procedure: Musca domestica Test Solvent: dimethyl sulfoxide To produce a suitable active ingredient formulation, 10 mg of active ingredient are mixed with 0.5 ml of dimethyl sulfoxide, and the concentrate is diluted with water to the desired concentration. Vessels containing a sponge treated with sugar solution and the desired concentration of active ingredient formulation are populated with 10 adult houseflies (Musca domestica). After 2 days, the kill in % is determined. 100% means that all the flies were killed; 0% means that no flies were killed.

[3] = system: Myzus persicae; experiment: Myzus persicae spray test (MYZUPE), Chinese cabbage leaf discs; conditions: foliar, 120 h
Procedure: Myzus persicae—Spray Test [table] To produce a suitable active ingredient formulation, 1 part by weight of active ingredient is dissolved with the specified parts by weight of solvent and made up to the desired concentration with water containing an emulsifier concentration of 1000 ppm. To produce further test concentrations, the formulation is diluted with emulsifier-containing water. Discs of Chinese cabbage leaves (Brassica pekinensis) infested by all stages of the green peach aphid (Myzus persicae) are sprayed with an active ingredient formulation of the desired concentration. After 5 days, the efficacy in % is determined. 100% means that all the aphids have been killed; 0% means that no aphids have been killed. Myzus persicae—Spray Test (MYZUPE) [table] To produce a suitable active ingredient formulation, 1 part by weight of active ingredient is dissolved with the specified parts by weight of solvent and made up to the desired concentration with water containing an emulsifier concentration of 1000 ppm. To produce further test concentrations, the formulation is diluted with emulsifier-containing water. Discs of Chinese cabbage leaves (Brassica pekinensis) infested by all stages of the green peach aphid (Myzus persicae) are sprayed with an active ingredient formulation of the desired concentration. After the desired period of time, the efficacy in % is determined. 100% means that all the aphids have been killed; 0% means that no aphids have been killed.

[4] = system: Lucilia cuprina; experiment: Lucilia cuprina test; conditions: after 2 days, L1 larvae
Procedure: Lucilia cuprina Test Solvent: dimethyl sulfoxide To produce a suitable active ingredient formulation, 10 mg of active ingredient are mixed with 0.5 ml of dimethyl sulfoxide, and the concentrate is diluted with water to the desired concentration. About 20 L1 larvae of the Australian sheep blowfly (Lucilia cuprina) are transferred into a test vessel containing minced horsemeat and the active ingredient formulation of the desired concentration. After 2 days, the kill in % is determined. 100% means that all the larvae have been killed; 0% means that no larvae have been killed.

[5] = system: Myzus persicae; experiment: Myzus persicae oral test; conditions: 120 h, application rate 4 ppm, after 5 days, read-out: efficacy
Procedure: Myzus persicae—Oral Test Solvent: 100 parts by weight of acetone To produce a suitable active ingredient formulation, 1 part by weight of active ingredient is dissolved with the stated parts by weight of solvent and made up to the desired concentration with water. 50 μl of the active ingredient formulation are transferred into microtitre plates and made up to a final volume of 200 μl with 150 μl of IPL41 insect medium (33%+15% sugar). Subsequently, the plates are sealed with parafilm, which a mixed population of green peach aphids (Myzus persicae) within a second microtitre plate is able to puncture and imbibe the solution. After 5 days, the efficacy in % is determined. 100% means that all the aphids have been killed; 0% means that no aphids have been killed.

[6] = system: Phaedon cochleariae; experiment: Phaedon cochleariae spray test, Chinese cabbage leaf discs; conditions: foliar, 168 h, application rate 100 g/ha, after 7 days, larvae, read-out: efficacy
Procedure: Phaedon cochleariae—Spray Test
(§1) To produce a suitable active ingredient formulation, 1 part by weight of active ingredient is dissolved with the specified parts by weight of solvent and made up to the desired concentration with water containing an emulsifier concentration of 1000 ppm. To produce further test concentrations, the formulation is diluted with emulsifier-containing water.
After 7 days, the efficacy in % is determined. 100% means that all the beetle larvae have been killed; 0% means that no beetle larvae have been killed.

[7] = system: Boophilus microplus; experiment: Boophilus microplus injection test; conditions: application rate 20 μg/animal, after 7 days, laying of fertile eggs
Procedure: Boophilus microplus—Injection Test Solvent: dimethyl sulfoxide To produce a suitable active ingredient formulation, 10 mg of active ingredient are mixed with 0.5 ml of solvent and the concentrate is diluted to the desired concentration with solvent. 1 μl of the active ingredient solution is injected into the abdomen of 5 engorged adult female cattle ticks (Boophilus microplus). The animals are transferred into dishes and kept in a climate-controlled room. Efficacy is assessed after 7 days by laying of fertile eggs. Eggs which are not visibly fertile are stored in a climate-controlled cabinet until the larvae hatch after about 42 days. An efficacy of 100% means that none of the ticks has laid any fertile eggs; 0% means that all the eggs are fertile.

[8] = system: Myzus persicae; experiment: Myzus persicae spray test, bell pepper plants; conditions: application rate 20 ppm, after 6 days
Procedure: Myzus persicae—Spray Test Solvent: 14 parts by weight of dimethylformamide Emulsifier: alkylaryl polyglycol ether To produce a suitable active ingredient formulation, 1 part by weight of active ingredient is dissolved with the specified parts by weight of solvent and made up to the desired concentration with water containing an emulsifier concentration of 1000 ppm. To produce further test concentrations, the formulation is diluted with emulsifier-containing water. If the addition of ammonium salts or/and penetrants is required, these are each added in a concentration of 1000 ppm to the formulation solution. Bell pepper plants (Capsicum annuum) severely infested with the green peach aphid (Myzus persicae) are treated by spraying with the active ingredient formulation in the desired concentration. After 6 days, the kill in % is determined. 100% means that all of the aphids have been killed; 0% means that none of the aphids have been killed.

[9] = system: Ctenocephalides felis; experiment: Ctenocephalides felis in vitro contact test with adult cat fleas; conditions: application rate 5 μg/cm^2 (=500 g/ha), after 48 h
Procedure: Ctenocephalides felis—In Vitro Contact Tests with Adult Cat Fleas For the coating of the test tubes, 9 mg of active ingredient are first dissolved in 1 ml of acetone p.a. and then diluted to the desired concentration with acetone p.a. 250 μl of the solution are distributed homogeneously on the inner walls and the base of a 25 ml glass tube by turning and rocking on an orbital shaker (rocking rotation at 30 rpm for 2 h). With 900 ppm of active ingredient solution and internal surface area 44.7 cm^2, given homogeneous distribution, an area-based dose of 5 μg/cm^2 is achieved. After the solvent has evaporated off, the tubes are populated with 5-10 adult cat fleas (Ctenocephalides felis), sealed with a perforated plastic lid and incubated in a horizontal position at room temperature and ambient humidity. After 48 h, efficacy is determined. To this end, the tubes are stood upright and the fleas are knocked to the base of the tube. Fleas which remain motionless at the base or move in an uncoordinated manner are considered to be dead or moribund. […] 100% efficacy means that all the fleas were dead or moribund. 0% efficacy means that no fleas were harmed.

[10] = system: Nezara viridula; experiment: Nezara viridula spray test; conditions: 96 h, NEZAVI, 500 g of ai/ha, 4 dat, read-out: % efficacy
Procedure: Nezara viridula—Spray Test [table] To produce a suitable active ingredient formulation, 1 part by weight of active ingredient is dissolved with the specified parts by weight of solvent and made up to the desired concentration with water containing an emulsifier concentration of 1000 ppm. To produce further test concentrations, the formulation is diluted with emulsifier-containing water. If the addition of ammonium salts or/and penetrants is required, these are each added in a concentration of 1000 ppm to the formulation solution. Barley plants (Hordeum vulgare) infected with larvae of the Southern green shield bug (Nezara viridula) are sprayed with an active ingredient formulation of the desired concentration. After the desired period of time, the efficacy in % is determined. 100% means that all of the shield bugs have been killed; 0% means that none of the shield bugs have been killed.

[11] = system: Spodoptera frugiperda; experiment: Spodoptera frugiperda spray test (SPODFR S), cotton leaves; conditions: 168 h, 7 dat, read-out: % efficacy
Procedure: Spodoptera frugiperda—Spray Test (SPODFR S) Solvent: 14 parts by weight of dimethylformamide Emulsifier: alkylaryl polyglycol ether To produce a suitable active ingredient formulation, 1 part by weight of active ingredient is dissolved with the specified parts by weight of solvent and made up to the desired concentration with water containing an emulsifier concentration of 1000 ppm. To produce further test concentrations, the formulation is diluted with emulsifier-containing water. If the addition of ammonium salts or/and penetrants is required, these are each added in a concentration of 1000 ppm to the formulation solution. Cotton leaves (Gossypium hirsutum) are sprayed with an active ingredient formulation of the desired concentration and populated with caterpillars of the armyworm (Spodoptera frugiperda). After the desired time, the kill in % is determined. 100% means that all caterpillars have been killed; 0% means that none of the caterpillars have been killed.

[12] = system: Phaedon cochleariae; experiment: Phaedon cochleariae spray test (PHAECO), cabbage leaves; conditions: 168 h, 7 dat, read-out: % efficacy
Procedure: Phaedon cochleariae—Spray Test (PHAECO)
Solvent: 14 parts by weight of dimethylformamide
Emulsifier: alkylaryl polyglycol ether
as §1, with “water. If the addition of ammonium salts or/and penetrants is required, these are each added in a concentration of 1000 ppm to the formulation solution.” for “water.”
Cabbage leaves (Brassica oleracea) are sprayed with an active ingredient formulation of the desired concentration and populated with larvae of the mustard beetle (Phaedon cochleariae).
After the desired time, the kill in % is determined. 100% means that all the beetle larvae have been killed; 0% means that no beetle larvae have been killed.

[13] = system: Nilaparvata lugens; experiment: Nilaparvata lugens spray test (NILALU); conditions: 96 h, 4 dat, read-out: % efficacy
Procedure: Nilaparvata lugens—Spray Test (NILALU)
as §1, with “water. If the addition of ammonium salts or/and penetrants is required, these are each added in a concentration of 1000 ppm to the formulation solution.” for “water.”
Rice plants (Oryza sativa) are sprayed with an active ingredient formulation of the desired concentration and then populated with larvae of the brown planthopper (Nilaparvata lugens).
[…], the efficacy in % is determined. 100% means that all of the planthoppers have been killed; 0% means that none of the planthoppers have been killed.

[14] = system: Spodoptera frugiperda; experiment: Spodoptera frugiperda drench test (SPODFR D); conditions: soil, 336 h, 14 dat, read-out: % efficacy
Procedure: Spodoptera frugiperda—Drench Test (SPODFR D) [table] To produce a suitable active ingredient formulation, 1 part by weight of active ingredient is mixed with the specified amounts of solvent and emulsifier, and the concentrate is diluted with water to the desired concentration, it being necessary to take into account the volume of soil which is drenched. It should be ensured that a concentration of 40 ppm of emulsifier in the soil is not exceeded. To produce further test concentrations, water is used for dilution. Maize plants (Zea mays) in pots of soil are watered with an active ingredient formulation of the desired concentration and infected with caterpillars of the armyworm (Spodoptera frugiperda). After the desired time, the kill in % is determined. 100% means that all caterpillars have been killed; 0% means that none of the caterpillars have been killed.

With `CCS(=O)(=O)c1ccc(-n2cncn2)nc1-c1nc2cc(C(F)(F)F)nc(C)c2n1C` [Example I-003] the “efficacy (kill)” value [1] was 100%, the “efficacy (kill)” value [2] was 100% and the pest or weed control at 20 g/ha ([3]; application rate 20 g/ha, after 5 days, read-out: efficacy) was 90%. For the same molecule, the “efficacy (kill)” value ([4]; application rate 100 ppm) was 100%, the pest or weed control at 4 ppm [5] was 100% and the pest or weed control at 100 g/ha [6] was 83%. The efficacy [7] was 100%.
With `CCS(=O)(=O)c1ccc(-n2ccnn2)nc1-c1nc2cc(C(F)(F)F)nc(C)c2n1C` [Example I-013] the “efficacy (kill)” value [1] was 100%, the “efficacy (kill)” value [2] was 100% and the Emax at 4 g/ha ([3]; MYZUPE, 4 g of ai/ha, 5 dat, read-out: % efficacy) was 70%. The “efficacy (kill)” value ([4]; application rate 20 ppm) was 80%, the “efficacy (kill)” value ([4]; application rate 100 ppm) was 100% and the pest or weed control at 4 ppm [5] was 100%. For the same molecule, the pest or weed control at 100 g/ha [6] was 83%, the “efficacy (kill)” value [8] was 100% and the efficacy [9] was 100%.
Work on `CCS(=O)(=O)c1ccc(-n2ncn(-c3ccc(Cl)cc3)c2=O)nc1-c1nc2cc(C(F)(F)F)ncc2n1C` [Prior art WO 2017/055185 (Ex. I-19), reference compound] yielded an Emax at 500 g/ha [10] of 0%, an Emax at 4 ppm [11] of 35% and an Emax at 20 g/ha ([3]; MYZUPE, 20 g of ai/ha, 5 dat, read-out: % efficacy) of 0%. For the same molecule, the Emax at 100 g/ha ([3]; MYZUPE, 100 g of ai/ha, 5 dat, read-out: % efficacy) was 0%, the Emax at 0.8 ppm [12] was 70% and the Emax at 100 g/ha ([13]; 100 g of ai/ha) was 0%. For the same molecule, the Emax at 500 g/ha ([13]; 500 g of ai/ha) was 0% and the Emax at 20 ppm [14] was 0%.
